Data from patent publication US4857652A, “Chemiluminescent 1,2-dioxetane compounds” (priority 1988, dated 1989).

Legend:
[1] = test system: alkaline phosphatase, Type VII-S from Bovine Intestinal Mucosa; test: Enzymatic triggering of chemiluminescence with alkaline phosphatase (bovine); assay type: biochemical; settings: 2-amino-2-methyl-1-propanol buffer pH 10.3, 37° C., 10 μL enzyme suspension
Method: A cuvette containing 3 mL of a buffer solution of 2-amino-2-methyl-1-propanol (Sigma Chemical Co., pH=10.3, 1.5M) was placed in the black box at 37° C. A portion (200 μL) of the dioxetane stock solution (6d in CH2 Cl2) was added to this buffer solution. Subsequent addition of 10 μL of an alkaline phosphatase suspension [Sigma, Type VII-S from Bovine Intestinal Mucosa, suspension in 3.2M (NH4)2 SO4 ] gave rise to chemiluminescence over a period of approximately 2-3 min indicating the enzymatic triggering of the dioxetane.

[2] = 25° C.; cited from earlier work

Row | Structure (SMILES) | period of chemiluminescence [1] [min] | rate of decomposition relative to protonated form (X=OH) [2]
1 | O=P(O)(O)Oc1ccc2c(c1)Oc1ccccc1C21OOC12C1CC3CC(C1)CC2C3 (centres unmarked) [Dioxetane 6d, Dispiro[adamantane-2,3'-[1,2]dioxetane-4',9"-(3-phosphate-9H-xanthene]] | 2 to 3 | 
2 | Oc1ccc(C23OCCOC2(c2ccccc2)OO3)cc1 (centres unmarked) [deprotonated dioxetane (X=O^-)] |  | 5.7×10^6 times
